Source: patent US20130217664A1, “NOVEL COMPOUNDS USEFUL FOR THE TREATMENT OF DEGENERATIVE AND INFLAMMATORY DISEASES” (priority 2012, published 2013)
Where two headings read alike, the source gives them in different places.

What was measured:
human JAK1 = target: T1, human JAK1 (Homo sapiens, UniProt P23458); test: JAK1 inhibition assay (polyGT substrate / Ulight-JAK1 peptide); format: biochemical; conditions: recombinant human JAK1 catalytic domain; polyGT or Ulight-JAK1 peptide assay
T1 construct: catalytic domain, amino acids 866-1154; catalog number PV4774; purchased Invitrogen PV4774
T1 sequence (P23458 866-1154): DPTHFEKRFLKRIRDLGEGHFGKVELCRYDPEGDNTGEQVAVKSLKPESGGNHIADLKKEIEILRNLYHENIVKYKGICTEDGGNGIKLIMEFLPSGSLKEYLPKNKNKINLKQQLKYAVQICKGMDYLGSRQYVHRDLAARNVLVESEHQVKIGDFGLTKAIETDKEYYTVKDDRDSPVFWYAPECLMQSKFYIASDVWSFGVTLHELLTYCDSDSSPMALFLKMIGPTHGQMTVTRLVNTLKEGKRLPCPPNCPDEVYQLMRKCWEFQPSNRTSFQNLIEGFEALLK
Procedure, shortened: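 Two formats. PolyGT radiometric: 45 min at 30 °C, stopped with phosphoric acid, counted as cpm. Ulight-JAK1 peptide: 60 min at room temperature, stopped with Eu-anti-phosphotyrosine/EDTA, read as RFU. Percent inhibition normalised to vehicle and 10 μM staurosporine.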

human JAK3 = target: T2, human JAK3 (Homo sapiens, UniProt P52333); test: JAK3 inhibition assay; format: biochemical; conditions: recombinant human JAK3 catalytic domain; polyGT substrate
T2 construct: catalytic domain (amino acids 781-1124; catalog number PV3855); purchased Invitrogen PV3855
T2 sequence (P52333 781-1124): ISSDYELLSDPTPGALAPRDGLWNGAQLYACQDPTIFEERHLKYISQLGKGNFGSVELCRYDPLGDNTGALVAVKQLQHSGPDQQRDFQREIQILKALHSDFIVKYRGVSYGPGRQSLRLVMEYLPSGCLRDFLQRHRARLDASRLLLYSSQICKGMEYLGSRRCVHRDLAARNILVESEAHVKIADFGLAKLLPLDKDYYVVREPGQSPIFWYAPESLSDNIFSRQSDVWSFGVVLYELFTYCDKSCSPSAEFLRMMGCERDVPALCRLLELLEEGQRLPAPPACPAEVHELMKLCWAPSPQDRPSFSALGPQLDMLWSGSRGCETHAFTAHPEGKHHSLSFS
Procedure, shortened: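 Radiometric kinase assay: 0.5 ng JAK3 with 2.5 μg polyGT in Tris pH 7.5/MgCl2 buffer, 1 μM ATP plus 0.25 μCi 33P-γ-ATP, 1% DMSO, 45 min at 30 °C, stopped with phosphoric acid.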

human TYK2 = target: T3, human TYK2 (Homo sapiens, UniProt P29597); test: TYK2 inhibition assay; format: biochemical; conditions: recombinant human TYK2 catalytic domain, polyGT substrate
T3 construct: catalytic domain (amino acids 871-1187; catalog number 08-147); purchased Carna Biosciences 08-147
T3 sequence (P29597 871-1187): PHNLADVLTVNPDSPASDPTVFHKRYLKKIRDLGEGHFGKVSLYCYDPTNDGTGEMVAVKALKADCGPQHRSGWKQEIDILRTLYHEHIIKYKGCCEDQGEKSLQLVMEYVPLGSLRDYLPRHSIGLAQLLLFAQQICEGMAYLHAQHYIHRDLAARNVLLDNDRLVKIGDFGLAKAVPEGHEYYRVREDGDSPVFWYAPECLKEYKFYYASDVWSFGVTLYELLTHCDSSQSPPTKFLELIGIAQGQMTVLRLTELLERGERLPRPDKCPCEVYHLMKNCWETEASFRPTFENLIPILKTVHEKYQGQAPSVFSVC
Procedure, shortened: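 Radiometric kinase reaction run 90 min at 30 °C, stopped with phosphoric acid, washed and scintillation-counted.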

[1] = system: pSTAT1(2)-luciferase reporter in HeLa cells triggered with human OSM; test: JAK-STAT signalling assay; format: cell-based; conditions: Homo sapiens, HeLa, read-out: JAK-STAT IC50
Protocol: JAK-STAT Signalling Assay
HeLa cells were maintained in Dulbecco's Modified Eagle's Medium (DMEM) containing 10% heat inactivated fetal calf serum, 100 U/mL penicillin and 100 μg/mL streptomycin. HeLa cells were used at 70% confluence for transfection. 20,000 cells in 87 μL cell culture medium were transiently transfected with 40 ng pSTAT1(2)-luciferase reporter (Panomics), 8 ng of LacZ reporter as internal control reporter and 52 ng of pBSK using 0.32 μL Jet-PEI (Polyplus) as transfection reagent per well in 96-well plate format. After overnight incubation at 37° C., 5% CO2, transfection medium was removed. 81 μL of DMEM+1.5% heat inactivated fetal calf serum was added. 9 μL compound at 10× concentration was added for 60 min and then 10 μL of human OSM (Peprotech) at 33 ng/mL final concentration.
After overnight incubation at 37° C., 5% CO2 cells were lysed by adding 100 μL lysis buffer/well (PBS, 0.9 mM CaCl2, 0.5 mM MgCl2, 10% Trehalose, 0.05% Tergitol NP9, 0.3% BSA).
40 μL of cell lysate was used to read β-galactosidase activity by adding 180 μL β-Gal solution (30 μL ONPG 4 mg/mL+150 μL β-Galactosidase buffer (0.06 M Na2HPO4, 0.04 M NaH2PO4, 1 mM MgCl2)) for 20 min.
Luciferase activity was measured using 40 μL cell lysate plus 40 μL of Steadylite as described by the manufacturer (Perkin Elmer), on the Envision (Perkin Elmer).
The positive and negative controls were used to calculate z′ and ‘percent inhibition’ (PIN) values.
Percentage inhibition=((fluorescence determined in the presence of vehicle−fluorescence determined for sample with test compound present)divided by(fluorescence determined in the presence of vehicle−fluorescence determined for sample without trigger))*100.
PIN values were plotted for compounds tested in dose-response and EC50 values were derived.

[2] = HeLa cells, pSTAT1(2)-luciferase reporter, human OSM 33 ng/mL

Compound | IC50 (human JAK1) [nM] | IC50 (human JAK3) [nM] | IC50 (human TYK2) [nM] | IC50 [1, 2] [nM] | IC50 [1] [nM]
CCc1cc(C(O)C(F)(F)F)ccc1N(C)c1cc2c(cn1)ncn2C (centres unmarked) [Compound 159, 1-(3-Ethyl-4-(methyl(1-methyl-1H-imidazo[4,5-c]pyridin-6-yl)amino)phenyl)-2,2,2-trifluoroethanol] | 0.01 to 100 | 501 to 1000 | 101 to 500 | > 1000 | –
CCc1cc(C(=O)NCCO)ccc1N(C)c1cc2c(cn1)ncn2C [Compound 160, 3-ethyl-N-(2-hydroxyethyl)-4-(methyl(1-methyl-1H-imidazo[4,5-c]pyridin-6-yl)amino)benzamide] | 0.01 to 100 | > 1000 | > 1000 | > 1000 | –
CCc1cc(-c2cccc(C#N)c2)ccc1N(C)c1cc2c(cn1)ncn2C [Compound 163, 3′-ethyl-4′-(methyl(1-methyl-1H-imidazo[4,5-c]pyridin-6-yl)amino)biphenyl-3-carbonitrile] | 0.01 to 100 | 501 to 1000 | 501 to 1000 | 501 to 1000 | –
CCc1cc(-c2ccccc2)ccc1N(C)c1cc2c(cn1)ncn2C [Compound 164, N-(3-ethylbiphenyl-4-yl)-N,1-dimethyl-1H-imidazo[4,5-c]pyridin-6-amine] | 0.01 to 100 | 101 to 500 | 0.01 to 100 | 501 to 1000 | –
CCc1cc(C2=CCN(C(C)=O)CC2)ccc1N(C)c1cc2c(cn1)ncn2C [Compound 168, 1-(4-(3-ethyl-4-(methyl(1-methyl-1H-imidazo[4,5-c]pyridin-6-yl)amino)phenyl)-5,6-dihydropyridin-1(2H)-yl)ethanone] | 0.01 to 100 | 101 to 500 | 0.01 to 100 | 1 to 500 | –
CCNC(=O)N1CC=C(c2ccc(N(C)c3cc4c(cn3)ncn4C)c(CC)c2)CC1 [Compound 172, N-ethyl-4-(3-ethyl-4-(methyl(1-methyl-1H-imidazo[4,5-c]pyridin-6-yl)amino)phenyl)-5,6-dihydropyridine-1(2H)-carboxamide] | 0.01 to 100 | 101 to 500 | 0.01 to 100 | 1 to 500 | –
CCc1cc(-c2nnc(C)o2)ccc1N(C)c1cc2c(cn1)ncn2C [Compound 177, N-(2-Ethyl-4-(5-methyl-1,3,4-oxadiazol-2-yl)phenyl)-N,1-dimethyl-1H-imidazo[4,5-d]pyridin-6-amine] | 0.01 to 100 | > 1000 | 0.01 to 100 | 501 to 1000 | –
CCc1cc(-c2nc(C)no2)ccc1N(C)c1cc2c(cn1)ncn2C [Compound 178, N-(2-Ethyl-4-(3-methyl-1,2,4-oxadiazol-5-yl)phenyl)-N,1-dimethyl-1H-imidazo[4,5-d]pyridin-6-amine] | 0.01 to 100 | > 1000 | 101 to 500 | 501 to 1000 | –
CCc1cc(-c2cncc(C#N)c2)ccc1N(C)c1cc2c(cn1)ncn2C [Compound 189, 5-(3-ethyl-4-(methyl(1-methyl-1H-imidazo[4,5-c]pyridin-6-yl)amino)phenyl)nicotino-nitrile] | 0.01 to 100 | > 1000 | 101 to 500 | > 1000 | –
CCc1cc(CNC(=O)OC)ccc1N(C)c1cc2c(cn1)ncn2C [Compound 191, Methyl 3-ethyl-4-(methyl(1-methyl-1H-imidazo[4,5-c]pyridin-6-yl)amino)benzyl carbamate] | 0.01 to 100 | 101 to 500 | 101 to 500 | 501 to 1000 | –
CCc1cc(C2=CCN(C(=O)CCC#N)CC2)ccc1N(C)c1cc2c(cn1)ncn2C [Compound 196, 4-(4-(3-ethyl-4-(methyl(1-methyl-1H-imidazo[4,5-c]pyridin-6-yl)amino)phenyl)-5,6-dihydropyridin-1(2H)-yl)-4-oxobutanenitrile] | 0.01 to 100 | 101 to 500 | 0.01 to 100 | 501 to 1000 | –
CCc1cc(C2=CCN(C(=O)C3(C#N)CC3)CC2)ccc1N(C)c1cc2c(cn1)ncn2C [Compound 198, 1-(4-(3-ethyl-4-(methyl(1-methyl-1H-imidazo[4,5-c]pyridin-6-yl)amino)phenyl)-1,2,3,6-tetrahydropyridine-1-carbonyl)cyclopropane-carbonitrile] | 0.01 to 100 | 101 to 500 | 0.01 to 100 | 501 to 1000 | –
CCc1cc(C2=CCN(C(=O)CC(C)(C)O)CC2)ccc1N(C)c1cc2c(cn1)ncn2C [Compound 200, 1-(4-(3-ethyl-4-(methyl(1-methyl-1H-imidazo[4,5-c]pyridin-6-yl)amino)phenyl)-5,6-dihydropyridin-1(2H)-yl)-3-hydroxy-3-methylbutan-1-one] | 0.01 to 100 | 101 to 500 | 0.01 to 100 | 501 to 1000 | –
CCc1cc(C2=CCN(C(=O)NC3(C)CC3)CC2)ccc1N(C)c1cc2c(cn1)ncn2C [Compound 202, 4-(3-ethyl-4-(methyl(1-methyl-1H-imidazo[4,5-c]pyridin-6-yl)amino)phenyl)-N-(1-methylcyclopropyl)-5,6-dihydropyridine-1(2H)-carboxamide] | 0.01 to 100 | 101 to 500 | 0.01 to 100 | 1 to 500 | –
CCc1cc(C2=CCN(C(=O)NC#N)CC2)ccc1N(C)c1cc2c(cn1)ncn2C [Compound 203, N-cyano-4-(3-ethyl-4-(methyl(1-methyl-1H-imidazo[4,5-c]pyridin-6-yl)amino)phenyl)-5,6-dihydropyridine-1(2H)-carboxamide] | 0.01 to 100 | 0.01 to 100 | 0.01 to 100 | > 1000 | –
CCc1cc(C2=CCN(C(=O)NC)CC2)ccc1N(C)c1cc2c(cn1)ncn2C [Compound 204, 4-(3-ethyl-4-(methyl(1-methyl-1H-imidazo[4,5-c]pyridin-6-yl)amino)phenyl)-N-methyl-5,6-dihydropyridine-1(2H)-carboxamide] | 0.01 to 100 | 0.01 to 100 | 0.01 to 100 | 1 to 500 | –
CCc1cc(C2=CCN(C(=O)N3CCC3)CC2)ccc1N(C)c1cc2c(cn1)ncn2C [Compound 205, azetidin-1-yl(4-(3-ethyl-4-(methyl(1-methyl-1H-imidazo[4,5-c]pyridin-6-yl)amino)phenyl)-5,6-dihydropyridin-1(2H)-yl)methanone] | 0.01 to 100 | 101 to 500 | 0.01 to 100 | 1 to 500 | –
CCc1cc(C2=CCN(C(=O)N(C)CC)CC2)ccc1N(C)c1cc2c(cn1)ncn2C [Compound 206, N-ethyl-4-(3-ethyl-4-(methyl(1-methyl-1H-imidazo[4,5-c]pyridin-6-yl)amino)phenyl)-N-methyl-5,6-dihydropyridine-1(2H)-carboxamide] | 0.01 to 100 | 101 to 500 | 0.01 to 100 | > 1000 | –
CCc1cc(C2=CCN(C(=O)N(C)CC#N)CC2)ccc1N(C)c1cc2c(cn1)ncn2C [Compound 207, N-(Cyanomethyl)-4-(3-ethyl-4-(methyl(1-methyl-1H-imidazo[4,5-c]pyridin-6-yl)amino)phenyl)-N-methyl-5,6-dihydropyridine-1(2H)-carboxamide] | 0.01 to 100 | 101 to 500 | 0.01 to 100 | – | 501 to 1000
CCc1cc(-c2cnn(Cc3ccc(OC)cc3)c2)ccc1N(C)c1cc2c(cn1)ncn2C [Compound 208, N-(2-ethyl-4-(1-(4-methoxybenzyl)-1H-pyrazol-4-yl)phenyl)-N,1-dimethyl-1H-imidazo[4,5-c]pyridin-6-amine] | 0.01 to 100 | 101 to 500 | 0.01 to 100 | 1 to 500 | –
